In US20210038587A1, “METHODS AND COMPOSITIONS FOR TREATING NON-ERK MAPK PATHWAY INHIBITOR-RESISTANT CANCERS” (BIOMED VALLEY DISCOVERIES, INC., priority 2013, published 2021):

Columns and labels:
[1] = tested on: A375, MIAPaCa-2, HCT116, Colo205, HT-29, and AN3Ca cells; test: Reverse Phase Protein Analysis (RPPA), all six cell lines; format: cell-based; settings: 10 μM, 6 hours
Method: (§1) Control wells were treated with DMSO at 0.1% (v/v) for 6 hours prior to cell lysate generation. Samples were then analyzed using reverse-phase protein microarray technology (Theranostics Health).
(§2) Cell lines with common alterations in BRAF and RAS were assayed: BRAF^V600E mutant lines A375, Colo205, and HT29; KRAS^G12C-mutant cell line MIAPACa-2; KRAS^G13D-mutant cell line HCT116; and AN3Ca with atypical HRAS^F82L mutation. Changes in protein levels are shown as a percentage change from dimethyl sulfoxide (DMSO)-treated parental control (FIG. 32A and Table 23).

Colo205 = test: Reverse Phase Protein Analysis (RPPA); format: cell-based, human; settings: % change from DMSO (matched cell line)
MIAPaCa-2 = test: Reverse Phase Protein Analysis (RPPA); format: cell-based; settings: MIAPaca2; % change from DMSO (matched cell line)
HT29 = test: Reverse Phase Protein Analysis (RPPA); format: cell-based; settings: % change from DMSO (matched cell line)
Method: as §1, §2

AN3Ca = test: Reverse Phase Protein Analysis (RPPA); format: cell-based; settings: % change from DMSO (matched cell line)
Method: as §1, §2

Cc1cnc(Nc2ccc(F)cc2Cl)nc1-c1c[nH]c(C(=O)N[C@H](CO)c2cccc(Cl)c2)c1 [Vx-11e]
pERK1/2 (ERK1/2-T202, -Y204) [1]: markedly increased pERK1/2
Avg (4ebp1 T70) (Colo205): −43.71%
Avg (Akt S473) (Colo205): −10.96%
Avg (Akt) (Colo205): −12.51%
Avg (Bad S136) (Colo205): −1.01%
Avg (Bad S155) (Colo205): −9.72%
Avg (Bak) (Colo205): −2.79%
Avg (Bax) (Colo205): −9.16%
Avg (Bcl 2) (Colo205): −14.09%
Avg (Bcl2 S70) (Colo205): −20.82%
Avg (Bcl 2 T56) (Colo205): −12.02%
Avg (Bim) (Colo205): 34.1%
Avg (CREB S133) (Colo205): −10.64%
Avg (Caspase 3 CL D175) (Colo205): −2.67%
Avg (Caspase 7 Cl D198) (Colo205): 0.03%
Avg (Chk1) (Colo205): −9.16%
Avg (Chk1 S345) (Colo205): 13.12%
Avg (Cyclin D1) (Colo205): −39.79%
Avg (ERK 1 2) (Colo205): −12.32%
Avg (ERK 1 2 T202 Y204) (Colo205): 98.48%
Avg (MAK1 S360) (Colo205): 6.22%
Avg (Mcl1) (Colo205): −10.64%
Avg (Raptor S792) (Colo205): 0.2%
Avg (Raptor) (Colo205): −0.05%
Avg (Rictor) (Colo205): 1.65%
Avg (Stat1) (Colo205): −6.1%
Avg (Stat3) (Colo205): −7.96%
Avg (bad S112) (Colo205): −30.28%
Avg (c Fos) (Colo205): −19.34%
Avg (c Myc) (Colo205): −7.42%
Avg (mTOR S2448) (Colo205): −8.52%
Avg (mTOR S2481) (Colo205): −9.43%
Avg (mTOR) (Colo205): 3.62%
Avg (p70 S6 Kinase) (Colo205): −3.42%
Avg (p90 RSK S380) (Colo205): −58.6%
Avg(S6 Ribo Prot S235 236) (Colo205): −93.04%
Avg(S6 Ribo Prot S240 244) (Colo205): −94.89%
Avg(Tuberin TSC2 Y1571) (Colo205): −9.45%
Avg(p70 S6 Kinase S371 S394) (Colo205): −13.64%
Avg(p70 S6 Kinase T389 T412) (Colo205): −28%
Avg (4ebp1 T70) (MIAPaCa-2): −15.72%
Avg (Akt S473) (MIAPaCa-2): 0.48%
Avg (Akt) (MIAPaCa-2): −0.15%
Avg (Bad S136) (MIAPaCa-2): 0.36%
Avg (Bad S155) (MIAPaCa-2): 7.38%
Avg (Bak) (MIAPaCa-2): −1.93%
Avg (Bax) (MIAPaCa-2): 4.33%
Avg (Bcl 2) (MIAPaCa-2): −2.3%
Avg (Bcl2 S70) (MIAPaCa-2): −7.83%
Avg (Bcl 2 T56) (MIAPaCa-2): −9.86%
Avg (Bim) (MIAPaCa-2): 2.1%
Avg (CREB S133) (MIAPaCa-2): −13.28%
Avg (Caspase 3 CL D175) (MIAPaCa-2): 6.17%
Avg (Caspase 7 Cl D198) (MIAPaCa-2): −0.32%
Avg (Chk1) (MIAPaCa-2): −1.8%
Avg (Chk1 S345) (MIAPaCa-2): 2.09%
Avg (Cyclin D1) (MIAPaCa-2): −33.96%
Avg (ERK 1 2) (MIAPaCa-2): −14.85%
Avg (ERK 1 2 T202 Y204) (MIAPaCa-2): 729.27%
Avg (MAK1 S360) (MIAPaCa-2): −0.87%
Avg (Mcl1) (MIAPaCa-2): −6.58%
Avg (Raptor S792) (MIAPaCa-2): −3.74%
Avg (Raptor) (MIAPaCa-2): 5.4%
Avg (Rictor) (MIAPaCa-2): −13.24%
Avg (Stat1) (MIAPaCa-2): −1.64%
Avg (Stat3) (MIAPaCa-2): 0.61%
Avg (bad S112) (MIAPaCa-2): −20.85%
Avg (c Fos) (MIAPaCa-2): −4.43%
Avg (c Myc) (MIAPaCa-2): −5.94%
Avg (mTOR S2448) (MIAPaCa-2): −5.38%
Avg (mTOR S2481) (MIAPaCa-2): −3.12%
Avg (mTOR) (MIAPaCa-2): −1.58%
Avg (p70 S6 Kinase) (MIAPaCa-2): −9.27%
Avg (p90 RSK S380) (MIAPaCa-2): −39.91%
Avg(S6 Ribo Prot S235 236) (MIAPaCa-2): −63.36%
Avg(S6 Ribo Prot S240 244) (MIAPaCa-2): −74.82%
Avg(Tuberin TSC2 Y1571) (MIAPaCa-2): −0.01%
Avg(p70 S6 Kinase S371 S394) (MIAPaCa-2): −30.35%
Avg(p70 S6 Kinase T389 T412) (MIAPaCa-2): −30.66%
Avg (4ebp1 T70) (HT29): −2.89%
Avg (Akt S473) (HT29): −20.5%
Avg (Akt) (HT29): −17.84%
Avg (Bad S136) (HT29): 5.53%
Avg (Bad S155) (HT29): −11.26%
Avg (Bak) (HT29): 2.69%
Avg (Bax) (HT29): −18.47%
Avg (Bcl 2) (HT29): −16.73%
Avg (Bcl2 S70) (HT29): −12.55%
Avg (Bcl 2 T56) (HT29): −25.01%
Avg (Bim) (HT29): 3.12%
Avg (CREB S133) (HT29): 14.16%
Avg (Caspase 3 CL D175) (HT29): −2.86%
Avg (Caspase 7 Cl D198) (HT29): 8.28%
Avg (Chk1) (HT29): 4.68%
Avg (Chk1 S345) (HT29): 6.44%
Avg (Cyclin D1) (HT29): −35.2%
Avg (ERK 1 2) (HT29): 0.24%
Avg (ERK 1 2 T202 Y204) (HT29): 435.68%
Avg (MAK1 S360) (HT29): 5.64%
Avg (Mcl1) (HT29): 1.36%
Avg (Raptor S792) (HT29): −2.13%
Avg (Raptor) (HT29): −6.53%
Avg (Rictor) (HT29): −2.6%
Avg (Stat1) (HT29): 4.29%
Avg (Stat3) (HT29): −4.28%
Avg (bad S112) (HT29): −35.62%
Avg (c Fos) (HT29): −8.23%
Avg (c Myc) (HT29): 10.71%
Avg (mTOR S2448) (HT29): −13.94%
Avg (mTOR S2481) (HT29): 0.52%
Avg (mTOR) (HT29): 16.94%
Avg (p70 S6 Kinase) (HT29): −1.72%
Avg (p90 RSK S380) (HT29): −43.41%
Avg(S6 Ribo Prot S235 236) (HT29): −32.8%
Avg(S6 Ribo Prot S240 244) (HT29): −24.35%
Avg(Tuberin TSC2 Y1571) (HT29): 2.85%
Avg(p70 S6 Kinase S371 S394) (HT29): −22.86%
Avg(p70 S6 Kinase T389 T412) (HT29): −12.31%
Avg (4ebp1 T70) (AN3Ca): 16.67%
Avg (Akt S473) (AN3Ca): 56.17%
Avg (Akt) (AN3Ca): −24.62%
Avg (Bad S136) (AN3Ca): −3.81%
Avg (Bad S155) (AN3Ca): 4.59%
Avg (Bak) (AN3Ca): −1.6%
Avg (Bax) (AN3Ca): −7.89%
Avg (Bcl 2) (AN3Ca): −18.77%
Avg (Bcl2 S70) (AN3Ca): −14.39%
Avg (Bcl 2 T56) (AN3Ca): −11.73%
Avg (Bim) (AN3Ca): −1.46%
Avg (CREB S133) (AN3Ca): 0.16%
Avg (Caspase 3 CL D175) (AN3Ca): −12.7%
Avg (Caspase 7 Cl D198) (AN3Ca): −8.09%
Avg (Chk1) (AN3Ca): −0.46%
Avg (Chk1 S345) (AN3Ca): −9.54%
Avg (Cyclin D1) (AN3Ca): −9.59%
Avg (ERK 1 2) (AN3Ca): −11.27%
Avg (ERK 1 2 T202 Y204) (AN3Ca): 718.94%
Avg (MAK1 S360) (AN3Ca): 6.83%
Avg (Mcl1) (AN3Ca): −4.24%
Avg (Raptor S792) (AN3Ca): 0.37%
Avg (Raptor) (AN3Ca): −2.47%
Avg (Rictor) (AN3Ca): 0.02%
Avg (Stat1) (AN3Ca): −0.83%
Avg (Stat3) (AN3Ca): −7.67%
Avg (bad S112) (AN3Ca): −45.63%
Avg (c Fos) (AN3Ca): −5.52%
Avg (c Myc) (AN3Ca): −5.47%
Avg (mTOR S2448) (AN3Ca): −2.37%
Avg (mTOR S2481) (AN3Ca): 7.22%
Avg (mTOR) (AN3Ca): −6.27%
Avg (p70 S6 Kinase) (AN3Ca): −2.33%
Avg (p90 RSK S380) (AN3Ca): −28.41%
Avg(S6 Ribo Prot S235 236) (AN3Ca): −18.54%
Avg(S6 Ribo Prot S240 244) (AN3Ca): −12.55%
Avg(Tuberin TSC2 Y1571) (AN3Ca): 3.8%
Avg(p70 S6 Kinase S371 S394) (AN3Ca): 44.04%
Avg(p70 S6 Kinase T389 T412) (AN3Ca): 0.56%
